The first test addresses Human Factor D (Homo sapiens (Human), UniProt P00746). The experiment in a line: Human Factor D Assay.
Details: not given
Type of test: biochemical. The gist of the method:
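First, compound at various concentrations is mixed with 80 nM (final) human serum Factor D in 50 mM Tris, 1M NaCl, pH 7.5 for 5 min at room temperature.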
Chain of Human Factor D (P00746 26-253): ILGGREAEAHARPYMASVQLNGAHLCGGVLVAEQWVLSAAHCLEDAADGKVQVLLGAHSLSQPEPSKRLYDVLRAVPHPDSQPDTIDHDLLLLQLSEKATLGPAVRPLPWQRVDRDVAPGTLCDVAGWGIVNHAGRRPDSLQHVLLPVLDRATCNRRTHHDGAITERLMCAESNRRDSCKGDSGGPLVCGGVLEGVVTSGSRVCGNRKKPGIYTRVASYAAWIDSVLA
Take `Cc1ncc(-c2ccc3c(c2)c(C(C)O)nn3CC(=O)N2C[C@H](F)C[C@H]2C(=O)Nc2cccc(Br)n2)cn1` (stereo partly drawn) [Compound 360, (2S,4R)-N-(6-bromopyridin-2-yl)-4-fluoro-1-(2-(3-(1-hydroxyethyl)-5-(2-methylpyrimidin-5-yl)-1H-indazol-1-yl)acetyl)pyrrolidine-2-carboxamide]: the IC50 – broadly, the point on the concentration scale where inhibition reaches its midpoint – fell in the range of 1000 to 10000 nM.

Still in this test, the particulars now being: Table 3; Human Factor D 80 nM, substrate Z-L-Lys-SBzl; read-out: IC50 (Stars).
Turning to `CC(=O)c1nn(CC(=O)N2C[C@H](F)C[C@H]2C(=O)Nc2cccc(Br)n2)c2cc(C(=O)N(C)C)c(-c3cnc(C)nc3)cc12` [Compound 362, 3-acetyl-1-(2-((2S,4R)-2-((6-bromopyridin-2-yl)carbamoyl)-4-fluoropyrrolidin-1-yl)-2-oxoethyl)-N,N-dimethyl-5-(2-methylpyrimidin-5-yl)-1H-indazole-6-carboxamide], the IC50 is below 1000 nM.

Take `CC(=O)c1nn(CC(=O)N2[C@@H]3C[C@@H]3C[C@H]2C(=O)Nc2ccn(CC(F)(F)F)n2)c2ccc(-c3cnc(C)nc3)cc12` [Compound 363, (1R,3S,5R)-2-(2-(3-acetyl-5-(2-methylpyrimidin-5-yl)-1H-indazol-1-yl)acetyl)-N-(1-(2,2,2-trifluoroethyl)-1H-pyrazol-3-yl)-2-azabicyclo[3.1.0] hexane-3-carboxamide]: the half-maximal inhibitory concentration (IC50) was below 1000 nM.

As for `CC(=O)c1nn(CC(=O)N2[C@@H]3C[C@@H]3C[C@H]2C(=O)Nc2cccc(Br)n2)c2ccc(-c3cnc(N)nc3)cc12` [Compound 364, (1R,3S,5R)-2-(2-(3-Acetyl-5-(2-aminopyrimidin-5-yl)-1H-indazol-1-yl)acetyl)-N-(6-bromopyridin-2-yl)-2-azabicyclo[3.1.0]hexane-3-carboxamide], the IC50 is below 1000 nM.

Consider `CC(=O)c1nn(CC(=O)N2[C@@H]3C[C@@H]3C[C@H]2C(=O)Nc2cnc(C)c(Br)n2)c2ccc(-c3cnc(C)nc3)cc12` [Compound 365, (1R,3S,5R)-2-(2-(3-Acetyl-5-(2-methylpyrimidin-5-yl)-1H-indazol-1-yl)acetyl)-N-(6-bromo-5-methylpyrazin-2-yl)-2-azabicyclo[3.1.0]hexane-3-carboxamide], for which the IC50 was below 1000 nM.

As to `COc1cc(Br)nc(NC(=O)[C@@H]2C[C@H]3C[C@H]3N2C(=O)Cn2nc(C(C)=O)c3cc(-c4cnc(C)nc4)ccc32)c1` [Compound 366], the IC50 is below 1000 nM.

As to `CC(=O)c1nn(CC(=O)N2C[C@H](F)C[C@H]2C(=O)Nc2cccc(Br)n2)c2ccc(-c3cnc(NC4CC4)nc3)cc12` [Compound 367, (2S,4R)-1-(2-(3-Acetyl-5-(2-(cyclopropylamino)pyrimidin-5-yl)-1H-indazol-1-yl)acetyl)-N-(6-bromopyridin-2-yl)-4-fluoropyrrolidine-2-carboxamide], the IC50 is below 1000 nM.

Turning to `CC(=O)c1nn(CC(=O)N2C[C@H](F)C[C@H]2C(=O)Nc2cncc(Cl)n2)c2ccc(-c3cnc(C)nc3)cc12` [Compound 368, (2S,4R)-1-(2-(3-Acetyl-5-(2-methylpyrimidin-5-yl)-1H-indazol-1-yl)acetyl)-N-(6-chloropyrazin-2-yl)-4-fluoropyrrolidine-2-carboxamide], the IC50 is below 1000 nM.

Take `CC(=O)c1nn(CC(=O)N2C[C@H](F)C[C@H]2C(=O)Nc2cc(C(F)(F)F)cc(Br)n2)c2ccc(-c3cnc(C)nc3)cc12` [Compound 370, (2S,4R)-1-(2-(3-Acetyl-5-(2-methylpyrimidin-5-yl)-1H-indazol-1-yl)acetyl)-N-(6-bromo-4-(trifluoromethyl)pyridin-2-yl)-4-fluoropyrrolidine-2-carboxamide]: the IC50 was below 1000 nM.

Take `CC(=O)c1nn(CC(=O)N2[C@H](C(=O)Nc3cccc(Br)n3)C[C@@]3(C)C[C@@H]23)c2ccc(-c3cnc(C)nc3)cc12` [Compound 372, (1R,3S,5R)-2-(2-(3-Acetyl-5-(2-methylpyrimidin-5-yl)-1H-indazol-1-yl)acetyl)-N-(6-bromopyridin-2-yl)-5-methyl-2-azabicyclo[3.1.0]hexane-3-carboxamide]: the IC50 was below 1000 nM.

`COc1cc2c(cc1-c1cnc(C)nc1)c(C(C)=O)nn2CC(=O)N1C[C@H](F)C[C@H]1C(=O)Nc1cccc(Br)n1` [Compound 373, (2S,4R)-1-(2-(3-Acetyl-6-methoxy-5-(2-methylpyrimidin-5-yl)-1H-indazol-1-yl)acetyl)-N-(6-bromopyridin-2-yl)-4-fluoropyrrolidine-2-carboxamide]: the IC50 was below 1000 nM.

On to `CC(=O)c1nn(CC(=O)N2C[C@H](F)C[C@H]2C(=O)Nc2cccc(Br)n2)c2ccc(-c3cnc(CO)nc3)cc12` [Compound 374, (2S,4R)-1-(2-(3-Acetyl-5-(2-(hydroxymethyl)pyrimidin-5-yl)-1H-indazol-1-yl)acetyl)-N-(6-bromopyridin-2-yl)-4-fluoropyrrolidine-2-carboxamide], for which the IC50 was below 1000 nM.

Take `CC(=O)c1nn(CC(=O)N2[C@@H]3C[C@@H]3C[C@H]2C(=O)Nc2cncc(Cl)n2)c2ccc(-c3cnc(C)nc3)cc12` [Compound 375, (1R,3S,5R)-2-(2-(3-Acetyl-5-(2-methylpyrimidin-5-yl)-1H-indazol-1-yl)acetyl)-N-(6-chloropyrazin-2-yl)-2-azabicyclo[3.1.0]hexane-3-carboxamide]: the half-inhibitory concentration (IC50) is below 1000 nM.

With `CC(=O)c1nn(CC(=O)N2C[C@H](F)C[C@H]2C(=O)Nc2ccnc(OCC(F)(F)F)n2)c2ccc(-c3cnc(C)nc3)cc12` [Compound 377, (2S,4R)-1-(2-(3-Acetyl-5-(2-methylpyrimidin-5-yl)-1H-indazol-1-yl)acetyl)-4-fluoro-N-(2-(2,2,2-trifluoroethoxy)pyrimidin-4-yl)pyrrolidine-2-carboxamide], the IC50 is below 1000 nM.

As to `CC(=O)c1nn(CC(=O)N2C[C@H](F)C[C@H]2C(=O)Nc2ncn(CC(F)(F)F)n2)c2ccc(-c3cnc(C)nc3)cc12` [Compound 378, (2S,4R)-1-(2-(3-Acetyl-5-(2-methylpyrimidin-5-yl)-1H-indazol-1-yl)acetyl)-4-fluoro-N-(1-(2,2,2-trifluoroethyl)-1H-1,2,4-triazol-3-yl)pyrrolidine-2-carboxamide], the IC50 was below 1000 nM.

For `CNc1ncc(-c2ccc3c(c2)c(C(C)=O)nn3CC(=O)N2[C@@H]3C[C@@H]3C[C@H]2C(=O)Nc2cncc(Br)n2)cn1` [Compound 379, (1R,3S,5R)-2-(2-(3-Acetyl-5-(2-(methylamino)pyrimidin-5-yl)-1H-indazol-1-yl)acetyl)-N-(6-bromopyrazin-2-yl)-2-azabicyclo[3.1.0]hexane-3-carboxamide], the IC50 was below 1000 nM.

As to `CC(=O)c1nn(CC(=O)N2[C@@H]3C[C@@H]3C[C@H]2C(=O)Nc2cncc(Br)n2)c2ccc(-c3cnc(NC4CC4)nc3)cc12` [Compound 380, (1R,3S,5R)-2-(2-(3-Acetyl-5-(2-(cyclopropylamino)pyrimidin-5-yl)-1H-indazol-1-yl)acetyl)-N-(6-bromopyrazin-2-yl)-2-azabicyclo[3.1.0]hexane-3-carboxamide], the IC50 was below 1000 nM.

For the compound `CC(=O)c1nn(CC(=O)N2C[C@H](F)C[C@H]2C(=O)Nc2cc(Br)n(C)n2)c2ccc(-c3cnc(C)nc3)cc12` [Compound 381, (2S,4R)-1-(2-(3-Acetyl-5-(2-methylpyrimidin-5-yl)-1H-indazol-1-yl)acetyl)-N-(5-bromo-1-methyl-1H-pyrazol-3-yl)-4-fluoropyrrolidine-2-carboxamide], the IC50 is below 1000 nM.

Turning to `CC(=O)c1nn(CC(=O)N2[C@H]3C[C@@]3(C)C[C@H]2C(=O)Nc2cccc(Br)n2)c2ccc(-c3cnc(C)nc3)cc12` [Compound 382, (1S,3S,5S)-2-(2-(3-Acetyl-5-(2-methylpyrimidin-5-yl)-1H-indazol-1-yl)acetyl)-N-(6-bromopyridin-2-yl)-5-methyl-2-azabicyclo[3.1.0]hexane-3-carboxamide], the IC50 is below 1000 nM.

Take `CC(=O)c1nn(CC(=O)N2[C@H]3C[C@@]3(CO)C[C@H]2C(=O)Nc2cccc(Br)n2)c2ccc(-c3cnc(C)nc3)cc12` [Compound 383, (1S,3S,5R)-2-(2-(3-Acetyl-5-(2-methylpyrimidin-5-yl)-1H-indazol-1-yl)acetyl)-N-(6-bromopyridin-2-yl)-5-(hydroxymethyl)-2-azabicyclo[3.1.0]hexane-3-carboxamide]: the IC50 is below 1000 nM.

Consider `COc1ncc(-c2ccc3c(c2)c(C(C)=O)nn3CC(=O)N2C[C@H](F)C[C@H]2C(=O)Nc2cccc(Br)n2)cn1` [Compound 384, (2S,4R)-1-(2-(3-Acetyl-5-(2-methoxypyrimidin-5-yl)-1H-indazol-1-yl)acetyl)-N-(6-bromopyridin-2-yl)-4-fluoropyrrolidine-2-carboxamide], for which the IC50 is below 1000 nM.

As to `COc1ncc(-c2ccc3c(c2)c(C(C)=O)nn3CC(=O)N2[C@@H]3C[C@@H]3C[C@H]2C(=O)Nc2cncc(Br)n2)cn1` [Compound 385, (1R,3S,5R)-2-(2-(3-Acetyl-5-(2-methoxypyrimidin-5-yl)-1H-indazol-1-yl)acetyl)-N-(6-bromopyrazin-2-yl)-2-azabicyclo[3.1.0]hexane-3-carboxamide], the IC50 is below 1000 nM.

As for `CC(=O)c1nn(CC(=O)N2C[C@H](F)C[C@H]2C(=O)Nc2cccc(Br)n2)c2cc(CN(C)C)c(-c3cnc(C)nc3)cc12` [Compound 387, (2S,4R)-1-(2-(3-Acetyl-6-((dimethylamino)methyl)-5-(2-methylpyrimidin-5-yl)-1H-indazol-1-yl)acetyl)-N-(6-bromopyridin-2-yl)-4-fluoropyrrolidine-2-carboxamide], the IC50 was below 1000 nM.

Still in this test, the particulars now being: read-out: IC50 (Stars).
As for `Cc1ncc(-c2ccc3c(c2)c(C(C)O)nn3CC(=O)N2C[C@H](F)C[C@H]2C(=O)Nc2cccc(Br)n2)cn1` (stereo partly drawn) [Compound 361, (2S,4R)-N-(6-bromopyridin-2-yl)-4-fluoro-1-(2-(3-(1-hydroxyethyl)-5-(2-methylpyrimidin-5-yl)-1H-indazol-1-yl)acetyl)pyrrolidine-2-carboxamide], the IC50 was in the range of 1000 to 10000 nM.

On to `Cc1ncc(-c2ccc3c(c2)c(C(C)O)nn3CC(=O)N2C[C@H](F)C[C@H]2C(=O)Nc2cccc(Br)n2)cn1` (stereo partly drawn) [Compound 376, (2S,4R)-N-(6-bromopyridin-2-yl)-4-fluoro-1-(2-(3-(1-hydroxyethyl)-5-(2-methylpyrimidin-5-yl)-1H-indazol-1-yl)acetyl)pyrrolidine-2-carboxamide], for which the IC50 was 1000 to 10000 nM.

The values are drawn from US10287301B2 (Achillion Pharmaceuticals, Inc., priority 2015, dated 2019).
